Assay results: patent publication US10676504B2 (Colorado State University Research Foundation, priority 2015, dated 2020)
Read-outs that look alike come from different tables or passages of the source. Each block holds one compound with its values, some of them ahead of it.

Tests used:
[1] = target: T1, HDAC6 (Homo sapiens, UniProt Q9UBN7); assay: HDAC biochemical assay (Example 16); set-up: recombinant, full-length HDAC protein; purchased BPS Biosciences; details: Table 4; reducing conditions (TCEP 200 μM)
T1 sequence (Q9UBN7 1-1215): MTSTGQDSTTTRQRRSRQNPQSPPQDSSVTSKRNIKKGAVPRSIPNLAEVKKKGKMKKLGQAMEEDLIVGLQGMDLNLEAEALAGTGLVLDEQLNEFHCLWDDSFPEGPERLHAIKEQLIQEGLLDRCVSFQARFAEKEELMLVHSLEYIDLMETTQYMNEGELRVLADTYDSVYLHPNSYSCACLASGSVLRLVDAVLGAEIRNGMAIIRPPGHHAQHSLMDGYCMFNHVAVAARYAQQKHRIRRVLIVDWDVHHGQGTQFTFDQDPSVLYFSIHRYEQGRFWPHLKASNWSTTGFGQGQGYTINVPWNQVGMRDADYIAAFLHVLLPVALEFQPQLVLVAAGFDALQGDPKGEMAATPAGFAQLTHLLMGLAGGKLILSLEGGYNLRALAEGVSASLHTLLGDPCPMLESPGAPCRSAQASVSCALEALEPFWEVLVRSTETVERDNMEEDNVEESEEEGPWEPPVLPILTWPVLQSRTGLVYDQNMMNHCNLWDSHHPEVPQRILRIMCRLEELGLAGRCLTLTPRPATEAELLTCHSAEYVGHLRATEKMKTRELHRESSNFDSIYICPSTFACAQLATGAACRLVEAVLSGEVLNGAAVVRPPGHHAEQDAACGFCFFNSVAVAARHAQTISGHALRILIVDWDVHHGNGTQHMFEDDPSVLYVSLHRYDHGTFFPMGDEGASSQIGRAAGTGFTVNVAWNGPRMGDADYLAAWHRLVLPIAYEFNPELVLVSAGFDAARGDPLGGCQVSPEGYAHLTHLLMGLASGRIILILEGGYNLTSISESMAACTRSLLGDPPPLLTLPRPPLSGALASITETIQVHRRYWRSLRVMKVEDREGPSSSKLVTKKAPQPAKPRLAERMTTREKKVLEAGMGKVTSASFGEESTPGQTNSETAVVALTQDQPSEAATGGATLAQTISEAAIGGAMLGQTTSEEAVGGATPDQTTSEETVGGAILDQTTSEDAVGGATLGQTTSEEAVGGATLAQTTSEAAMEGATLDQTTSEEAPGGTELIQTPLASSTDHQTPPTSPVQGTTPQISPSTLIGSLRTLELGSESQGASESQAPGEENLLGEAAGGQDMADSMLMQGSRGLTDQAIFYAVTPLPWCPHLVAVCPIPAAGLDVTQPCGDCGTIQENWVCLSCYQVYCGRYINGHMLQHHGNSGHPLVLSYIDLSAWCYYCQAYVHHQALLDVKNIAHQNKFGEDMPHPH
Procedure: (§1) Thus, small-molecule inhibitors were arrayed at twelve-point dose-response (3-fold increments) in 384-well library plates and transferred by robotic pin device to replicate assay plates containing assay buffer under reducing conditions (TCEP 200 μM). A liquid handling device then transferred a tripeptide substrate terminating in acetyl-lysine and amide conjugated to 4-methyl-7-aminocoumarin (AMC), recombinant human histone deacetylase (BPS Bioscience, San Diego, Calif.), and recombinant human trypsin (Sigma-Aldrich, St. Louis, Mo.). Following deacetylase hydrolysis of acetyl-lysine, trypsin cleavage liberated the AMC fluorophore. Kinetic (fluorescence per unit time) and end-point (total fluorescence) data were captured by a multilabel plate reader. Replicate data were analyzed by curve-fit using logistic regression (Spotfire Decision-Site).

[2] = target: T2, HDAC3/NCor2 (Homo sapiens, UniProt O15379); assay: HDAC biochemical assay (Example 16)
T2 construct: recombinant, full-length HDAC protein; purchased BPS Biosciences
T2 sequence (O15379 whole entry): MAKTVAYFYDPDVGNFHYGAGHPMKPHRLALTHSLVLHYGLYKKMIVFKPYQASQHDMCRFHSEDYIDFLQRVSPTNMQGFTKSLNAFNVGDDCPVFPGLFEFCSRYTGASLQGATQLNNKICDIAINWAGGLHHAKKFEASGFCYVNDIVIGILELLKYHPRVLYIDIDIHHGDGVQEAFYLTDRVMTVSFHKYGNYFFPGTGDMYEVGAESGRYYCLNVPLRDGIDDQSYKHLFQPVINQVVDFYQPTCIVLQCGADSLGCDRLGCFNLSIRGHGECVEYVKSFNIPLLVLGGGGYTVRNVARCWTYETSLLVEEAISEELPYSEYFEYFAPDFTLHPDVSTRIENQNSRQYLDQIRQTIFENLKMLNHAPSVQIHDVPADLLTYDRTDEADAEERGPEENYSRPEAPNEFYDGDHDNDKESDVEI
T2 sequence (Q9Y618 395-489 partner limits assumed): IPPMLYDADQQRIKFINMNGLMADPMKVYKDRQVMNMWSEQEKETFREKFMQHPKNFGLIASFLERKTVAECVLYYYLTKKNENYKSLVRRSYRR
Procedure: as §1

[3] = test system: human HDACs; assay: HDAC biochemical assay (Example 16), summary statements over isoforms
Procedure: The inhibitory effect of compounds on deacetylase isoenzyme function was determined in vitro using an optimized homogenous assay performed in 384-well plate format. […] Data are analyzed on a plate-by-plate basis for the linear range of fluorescence over time. Data from the plate capture corresponding to the mid-linear range is imported into analytical software and annotated with well identity and compound concentration (Spotfire DecisionSite). Replicate experimental data from incubations with inhibitor are normalized to control, solvent-only wells and IC-50 is determined by logistic regression.
Thus, small-molecule inhibitors were arrayed at twelve-point dose-response (3-fold increments) in 384-well library plates and transferred by robotic pin device to replicate assay plates containing assay buffer under reducing conditions (TCEP 200 μM). A liquid handling device then transferred a tripeptide substrate terminating in acetyl-lysine and amide conjugated to 4-methyl-7-aminocoumarin (AMC), recombinant human histone deacetylase (BPS Bioscience, San Diego, Calif.), and recombinant human trypsin (Sigma-Aldrich, St. Louis, Mo.). […] Kinetic (fluorescence per unit time) and end-point (total fluorescence) data were captured by a multilabel plate reader. Replicate data were analyzed by curve-fit using logistic regression (Spotfire Decision-Site). […]

[4] = target: T3, HDAC1 (Homo sapiens, UniProt Q13547); assay: HDAC biochemical assay (Example 16); set-up: recombinant, full-length HDAC protein; purchased BPS Biosciences; details: Table 4; reducing conditions (TCEP 200 μM)
T3 sequence (Q13547 whole entry): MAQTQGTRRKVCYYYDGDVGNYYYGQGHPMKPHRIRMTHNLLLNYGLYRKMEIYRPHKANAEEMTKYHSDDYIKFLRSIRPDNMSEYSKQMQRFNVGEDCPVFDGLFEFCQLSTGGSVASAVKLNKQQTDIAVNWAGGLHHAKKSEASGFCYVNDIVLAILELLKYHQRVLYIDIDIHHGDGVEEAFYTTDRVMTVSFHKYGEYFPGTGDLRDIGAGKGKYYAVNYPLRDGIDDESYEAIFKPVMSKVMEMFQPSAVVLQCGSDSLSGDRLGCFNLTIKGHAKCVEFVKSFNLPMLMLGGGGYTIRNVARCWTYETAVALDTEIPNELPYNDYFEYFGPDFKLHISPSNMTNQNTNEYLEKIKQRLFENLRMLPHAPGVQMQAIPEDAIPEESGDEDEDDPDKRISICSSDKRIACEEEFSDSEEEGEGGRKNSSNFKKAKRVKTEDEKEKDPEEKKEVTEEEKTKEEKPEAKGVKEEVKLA
Procedure: as §1

[5] = target: T4, HDAC2 (Homo sapiens, UniProt Q92769); assay: HDAC biochemical assay (Example 16); set-up: recombinant, full-length HDAC protein; purchased BPS Biosciences; details: Table 4; reducing conditions (TCEP 200 μM)
T4 sequence (Q92769 whole entry): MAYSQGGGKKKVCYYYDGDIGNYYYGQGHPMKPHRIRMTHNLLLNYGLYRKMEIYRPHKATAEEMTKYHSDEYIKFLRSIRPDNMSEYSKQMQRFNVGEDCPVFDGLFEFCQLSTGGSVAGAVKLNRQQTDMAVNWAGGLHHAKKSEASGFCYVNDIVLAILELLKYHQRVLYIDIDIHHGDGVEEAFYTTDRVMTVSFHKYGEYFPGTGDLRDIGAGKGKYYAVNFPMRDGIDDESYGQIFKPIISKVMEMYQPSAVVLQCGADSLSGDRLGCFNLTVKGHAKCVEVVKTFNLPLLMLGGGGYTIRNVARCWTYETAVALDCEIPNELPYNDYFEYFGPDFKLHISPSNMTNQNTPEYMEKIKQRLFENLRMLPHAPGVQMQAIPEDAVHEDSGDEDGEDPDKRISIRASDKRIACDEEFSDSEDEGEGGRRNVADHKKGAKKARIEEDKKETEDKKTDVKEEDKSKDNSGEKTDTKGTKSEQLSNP
Procedure: as §1

[6] = test system: NCI-60 cancer cell lines; details: five-dose
Source text: (§2) All compounds submitted for screening were initially tested at a single high dose (10^-5 M) against the fill NCI 60 cell panel. Only compounds which satisfied pre-determined threshold inhibition criteria in a minimum number of cell lines progressed to a second round of testing utilizing a more comprehensive 5-dose inhibition assay. The threshold inhibition criteria for progression to the 5-dose assays were selected to efficiently capture compounds with anti-proliferative activity based on historical DTP screening data.
(§3) Concentrations for G150, IC50, TGI, and LC50 were calculated for all cell lines tested, and heat plots were prepared.

[7] = test system: melanoma cell lines; assay: cells; details: read-out: Average Concentration (M), LC50, Melanoma
Source text: as §2, §3

[8] = test system: renal cancer cell lines; details: five-dose
[9] = target: T5, HDAC8 (Homo sapiens, UniProt Q9BY41); assay: HDAC biochemical assay of P5-P12 (Table P1); set-up: The recombinant, full-length HDAC protein (BPS Biosciences) was incubated; purchased BPS Biosciences
T5 sequence (Q9BY41 1-377): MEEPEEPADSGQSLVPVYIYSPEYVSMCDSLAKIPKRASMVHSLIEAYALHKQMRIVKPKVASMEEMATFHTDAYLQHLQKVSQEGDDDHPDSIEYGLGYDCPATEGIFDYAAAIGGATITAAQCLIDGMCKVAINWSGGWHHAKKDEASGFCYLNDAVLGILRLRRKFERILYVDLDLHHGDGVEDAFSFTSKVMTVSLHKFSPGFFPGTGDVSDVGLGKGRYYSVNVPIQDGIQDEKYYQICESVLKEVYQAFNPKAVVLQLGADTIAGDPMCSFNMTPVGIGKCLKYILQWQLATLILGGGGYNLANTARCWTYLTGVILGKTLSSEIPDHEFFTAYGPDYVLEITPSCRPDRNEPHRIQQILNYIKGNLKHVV

[10] = test system: human malignant melanoma cell lines; assay: melanoma cell viability, ATP content (Cell TiterGlo); format: cell-based; details: range over panel of melanoma cell lines, FIG. 4, read-out: IC50 melanoma cell proliferation
[11] = test system: HDACs 1-3; assay: HDAC biochemical assay of P5-P12, summary statements
[12] = target: T3, HDAC1; details: read-out: HDAC1 IC50; Table O1
[13] = test system: NCI-60 cancer cell lines; assay: cells
Source text: as §2, §3

[14] = target: T3, HDAC1; details: read-out: HDAC inhibitory activity (Ki) HDAC1; Table 2
Source text: (§4) To measure the inhibitory effect on deacetylase function in vitro, a continuous kinetic biochemical assay miniaturized to 384-well plate format was optimized.
(§5) Fluorescence measurements were obtained in real-time on a Varioskan microtiter plate reader (Thermo).

[15] = test system: melanoma cell lines; details: five-dose
Source text: as §2, §3

[16] = target: T3, HDAC1; assay: HDAC biochemical assay of P5-P12 (Table P1); set-up: The recombinant, full-length HDAC protein (BPS Biosciences) was incubated; purchased BPS Biosciences
[17] = target: T4, HDAC2; assay: HDAC biochemical assay of O10-O12 (Table O1); set-up: The recombinant, full-length HDAC protein (BPS Biosciences) was incubated; purchased BPS Biosciences
[18] = target: T4, HDAC2; format: biochemical; set-up: The recombinant, full-length HDAC protein (BPS Biosciences) was incubated; purchased BPS Biosciences; details: read-out: HDAC inhibitory activity (Ki) HDAC2
Source text: as §4, §5

[19] = target: T4, HDAC2; assay: HDAC biochemical assay of P5-P12 (Table P1); set-up: The recombinant, full-length HDAC protein (BPS Biosciences) was incubated; purchased BPS Biosciences
[20] = target: T4, HDAC2; assay: HDAC2 inhibition, trypsin-coupled kinetic fluorescence homogeneous assay (Example 10); format: biochemical; set-up: The recombinant, full-length HDAC protein (BPS Biosciences) was incubated; purchased BPS Biosciences; details: Conc (uM); logistic curve fit of activity versus concentration; some fits reached max iterations; read-out: X50
Procedure: as §4, §5
A biochemical study of HDAC2 inhibition was carried out using the trypsin-coupled, kinetic fluorescence homogeneous assay described above.

[21] = target: T1, HDAC6; details: read-out: HDAC6 IC50; Table O1; 200 μM TCEP
[22] = target: T5, HDAC8; details: read-out: HDAC8 IC50; Table O1
[23] = target: T6, HDAC3 (Homo sapiens, UniProt O15379); assay: HDAC biochemical assay of O10-O12 (Table O1)
T6 construct: The recombinant, full-length HDAC protein (BPS Biosciences) was incubated; purchased BPS Biosciences
T6 sequence (O15379 whole entry): as the sequence (O15379 whole entry) above
T6 sequence (Q9Y618 395-489 partner limits assumed): as the sequence (Q9Y618 395-489 partner limits assumed) above

[24] = target: HDAC7 (Homo sapiens, UniProt Q8WUI4); details: read-out: HDAC7 IC50; Table O1
Sequence of HDAC7 (Q8WUI4 518-952 limits assumed): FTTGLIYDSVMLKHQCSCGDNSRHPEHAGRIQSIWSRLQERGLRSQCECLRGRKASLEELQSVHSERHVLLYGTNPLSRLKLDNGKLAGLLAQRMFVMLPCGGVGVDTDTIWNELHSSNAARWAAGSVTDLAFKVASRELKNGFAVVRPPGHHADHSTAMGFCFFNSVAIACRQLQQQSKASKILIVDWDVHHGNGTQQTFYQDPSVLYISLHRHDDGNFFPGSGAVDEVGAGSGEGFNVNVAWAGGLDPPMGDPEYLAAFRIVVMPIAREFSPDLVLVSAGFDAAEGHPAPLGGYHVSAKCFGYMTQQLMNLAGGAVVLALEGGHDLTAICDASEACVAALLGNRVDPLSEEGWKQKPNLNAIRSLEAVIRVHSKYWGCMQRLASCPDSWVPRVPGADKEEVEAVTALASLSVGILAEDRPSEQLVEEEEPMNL

Compound: CC(C)[C@@H]1NC(=O)[C@]2(C)CSC(=N2)c2cccc(n2)CNC(=O)C[C@@H](/C=C/CCS)OC1=O [Thiazole-pyridine substitution (29b)]
IC50 [1]: 29 nM
IC50 [2]: 1.1 nM
activity against Class I HDACs [3]: sub-nanomolar

Compound: CC(C)C1NC(=O)C2(C)COC(=N2)c2coc(n2)CNC(=O)CC(C=CCCSSCCC=CC2CC(=O)NCc3nc(co3)C3=NC(C)(CO3)C(=O)NC(C(C)C)C(=O)O2)OC1=O (stereo not drawn) [Oxazoline-oxazole (39b), Disulfide Dimer 39b]
IC50 [4]: 0.69 nM
IC50 [2]: 1.5 nM
IC50 [5]: 1.7 nM

Compound: CCCCCCCC(=O)SCC/C=C/[C@@H]1CC(=O)NCc2nc(cs2)C2=N[C@@](C)(CS2)C(=O)N[C@@H](C(C)C)C(=O)O1 [Largazole, largazole, reference compound]
Percent of Cell Lines Impacted (%), GI50 ([6]; 50% Growth Inhibition): 100%
Percent of Cell Lines Impacted (%), LC50 ([6]; 50% Lethal Concentration reached): 7%
Percent of Cell Lines Impacted (%), TGI ([6]; Total Growth Inhibition): 58%
Total Impacted Cell Lines (n), TGI ([6]; Total Growth Inhibition): 34
CC50 [7]: 3.55e-06 M
Percent of Cell Lines Impacted (%), LC50, Renal [8]: 14%
IC50 [9]: 1070 nM
IC50 [10]: 45 to 315 nM
IC50 range in words for HDACs 1-3 [11]: high nM-μM range
IC50 [12]: 230 nM
GI50 ([13]; read-out: Average Concentration (M), GI50): 2.1e-06 M
GI50 ([13]; read-out: GI50 concentrations (M), order of magnitude): 1e-06 M
Ki [14]: 20 nM
Percent of Cell Lines Impacted (%), LC50, Melanoma [15]: 33%
IC50 [16]: 10.1 nM
IC50 [17]: 900 nM
Ki [18]: 21 nM
IC50 [19]: 18.6 nM

IC50 [20]: 0.773 µM
IC50 [1]: 13000 nM
IC50 [4]: 110 nM
IC50 ([2]; Table 4, reducing conditions (TCEP 200 μM)): 580 nM
IC50 [5]: 800 nM
Compound: C[C@@]12CSC(=N1)c1csc(n1)CNC(=O)C[C@@H](/C=C/CCS)OC(=O)[C@@H]1CCCN1C2=O [Proline substitution (4)]

Compound: CC(C)[C@@H]1NC(=O)[C@]2(C)CSC(=N2)c2coc(n2)CNC(=O)C[C@@H](/C=C/CCS)OC1=O [Compound O11, Thiazoline-Oxazole Thiol Analog]
IC50 [21]: 98 nM
IC50 [12]: 4.4 nM
IC50 [22]: 1200 nM
IC50 [23]: 7.2 nM
IC50 [24]: 960 nM
IC50 [17]: 20 nM

Compound: CCCCCCCC(=O)SCCC=CC1CC(=O)NCc2nc(co2)C2=NC(C)(CS2)C(=O)NC(C(C)C)C(=O)O1 (stereo not drawn) [Compound O12, Thiazoline-Oxazole Thioester Analog]
IC50 [21]: 1100 nM
IC50 [12]: 950 nM
IC50 [23]: 1900 nM
IC50 [17]: 2100 nM
